Columns and labels:
[1] = solubility of the steroid in water and in hydrocarbon and other vehicles; type: physicochemical
[2] = solubility of econazole nitrate in water and in the isosorbide preparations; type: physicochemical

solubility in hydrocarbon vehicles ([1]; mineral oil, petrolatum or polyethylene gelled mineral oil, compared with water) | solubility ([1]; water) [µg/mL] | solubility in water-soluble emulsifiers and oil liquids or emollients ([1]; water-soluble emulsifiers and oil liquids or emollients suggested for ointments, gels, creams and lotions) | solubilized and available econazole nitrate relative to a conventional lotion or cream ([2]; in these preparations (Econazole Cream 0.5%, Econazole Lotion 0.5%) vs conventional lotion or cream, about) [times] | solubility ([2]; water) [µg/mL] | Compound
even less soluble | < 5 | undesirably low solubility |  |  | CC1(C)O[C@@H]2C[C@H]3[C@@H]4CCC5=CC(=O)CC[C@]5(C)[C@@]4(F)[C@@H](O)C[C@]3(C)[C@]2(C(=O)CCl)O1 [21-chloro-9α-fluoro-Δ^4-pregnene-11β,16α,17α-triol-3,20-dione 16,17-acetonide]
 |  |  | ≥ 5 | ~1000 | Clc1ccc(COC(Cn2ccnc2)c2ccc(Cl)cc2Cl)cc1 (centres unmarked) [econazole nitrate]
